Source: ChEMBL document CHEMBL4000239, “A novel piperazine linked β-amino alcohols bearing a benzosuberone scaffolds as anti-proliferative agents” (2017)

What was measured:
Format in all cases: functional
[1] = test system: HeLa; assay: Cytotoxicity against human HeLa cells assessed as growth inhibition after 48 hrs by SRB assay
[2] = test system: A549; assay: Cytotoxicity against human A549 cells assessed as growth inhibition after 48 hrs by SRB assay; settings: A549, 48 h
[3] = Cytotoxicity against human MiaPaCa cells assessed as growth inhibition after 48 hrs by SRB assay; settings: MIA PaCa-2, 48 h
[4] = test system: MDA-MB-231; assay: Cytotoxicity against human MDA-MB-231 cells assessed as growth inhibition after 48 hrs by SRB assay; settings: MDA-MB-231, 48 h

SMILES: Cc1cc2c(cc1C)C(Cl)=C(COCC(O)CN1CCCCC1)CCC2 (stereo not drawn)
- GI50 [1]: 1.7 µM
- GI50 [2]: 1.5 µM
- GI50 [3]: 2.6 µM
- GI50 [4]: 2.1 µM

SMILES: Cc1cc2c(cc1C)C(Cl)=C(COCC(O)CN1CCN(c3ccccc3F)CC1)CCC2 (stereo not drawn)
- GI50 [1]: 7.8 µM
- GI50 [2]: 6.3 µM
- GI50 [3]: 9.6 µM
- GI50 [4]: 9 µM

SMILES: Cc1cc2c(cc1C)C(Cl)=C(COCC(O)CN1CCSCC1)CCC2 (stereo not drawn)
- GI50 [1]: 1 µM
- GI50 [2]: 0.9 µM
- GI50 [3]: 1.5 µM
- GI50 [4]: 2.9 µM

SMILES: Cc1cc2c(cc1C)C(Cl)=C(COCC(O)CN1CCN(C)CC1)CCC2 (stereo not drawn)
- GI50 [1]: 16.3 µM
- GI50 [2]: 18.2 µM
- GI50 [3]: 24.4 µM
- GI50 [4]: 20.8 µM

SMILES: CCOC(=O)N1CCN(CC(O)COCC2=C(Cl)c3cc(C)c(C)cc3CCC2)CC1 (stereo not drawn)
- GI50 [1]: 7.2 µM
- GI50 [2]: 4 µM
- GI50 [3]: 7.9 µM
- GI50 [4]: 7.3 µM

SMILES: Cc1cc2c(cc1C)C(Cl)=C(COCC(O)CN1CCN(c3ccc(C(F)(F)F)cc3)CC1)CCC2 (stereo not drawn)
- GI50 [1]: 3.8 µM
- GI50 [2]: 3 µM
- GI50 [3]: 2 µM
- GI50 [4]: 2.5 µM

SMILES: Cc1cc2c(cc1C)C(Cl)=C(COCC(O)CN1CCC(Cc3ccccc3)CC1)CCC2 (stereo not drawn)
- GI50 [1]: 1.4 µM
- GI50 [2]: 1.8 µM
- GI50 [3]: 1.2 µM
- GI50 [4]: 2.9 µM

SMILES: Cc1cc2c(cc1C)C(Cl)=C(COCC(O)CN1CCN(c3ccccc3)CC1)CCC2 (stereo not drawn)
- GI50 [1]: 6.9 µM
- GI50 [2]: 5.8 µM
- GI50 [3]: 8.8 µM
- GI50 [4]: 7.8 µM

SMILES: Cc1cc2c(cc1C)C(Cl)=C(COCC(O)CN1CCOCC1)CCC2 (stereo not drawn)
- GI50 [1]: 7.4 µM
- GI50 [2]: 5.2 µM
- GI50 [3]: 5.6 µM
- GI50 [4]: 7.9 µM

SMILES: COc1ccccc1N1CCN(CC(O)COCC2=C(Cl)c3cc(C)c(C)cc3CCC2)CC1 (stereo not drawn)
- GI50 [1]: 2.4 µM
- GI50 [2]: 2.1 µM
- GI50 [3]: 2.8 µM
- GI50 [4]: 3 µM

SMILES: Cc1cc2c(cc1C)C(Cl)=C(COCC(O)CN1CCN(c3ccc([N+](=O)[O-])cc3)CC1)CCC2 (stereo not drawn)
- GI50 [1]: 0.097 µM
- GI50 [2]: 0.023 µM
- GI50 [3]: 0.056 µM
- GI50 [4]: 0.01 µM

SMILES: COC(=O)Nc1nc2cc(C(=O)c3cccs3)ccc2[nH]1 [NOCODAZOLE]
- GI50 [1]: 0.086 µM
- GI50 [2]: 0.09 µM
- GI50 [3]: 0.091 µM
- GI50 [4]: 0.065 µM
